Test: recombinant UMI read abundance after kanamycin selection (control-corrected) (log10(CPM+1)); higher = more efficient recombination; extreme values may be limits of the assay; sequences stand for … in AGTGCAGAGAAAATCGGCCAGTTTTCTCTGCCTGCAGTCCGCATGCCGTGGGACCCCTTGGGTTCTAACCTGTTGCCTAGATTTATGCAGCGGACTGCCTTTCTCCCAAAGTGATAAACCGG…AGGTTGGTTTCACT; site = the 11-nt donor
Outline: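 Reported values are log10(CPM+1) from a pooled Escherichia coli screen of donor and donor-binding-loop pairs for the IS621 bridge recombinase. Selection used IPTG (0.07 mM) plus kanamycin, against unselected plating, each in two replicates. Recombinant UMIs were amplified across the donor–target junction, sequenced, converted to CPM, averaged over replicates and scaled by control-derived factors.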
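Further: IS621 bridge recombinase in Escherichia coli cells against a fixed T5 target plasmid.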

Sequence	recombinant UMI read abundance (log10)
CTGCATCCATGGACCGGTTTTCCCGGTAATCCGTATTTGTT (site CTGCATCCTAA)	0.855
CTGCGACCATGGACCGGTTTTCCCGGTAATCCGTATTTGCT (site CTGCAACCTAG)	0
CTGCGACCATGGACCGGTTTTCCCGGTAATCCGTATTTGCT (site CTGCCACCTAG)	0.0046
CTGCGACCATGGACCGGTTTTCCCGGTAATCCGTATTTGCT (site CTGCGACCTAG)	0
CTGCGACCATGGACCGGTTTTCCCGGTAATCCGTATTTGCT (site CTGCTACCTAG)	0
CTGCGCTCATGGACCGGTTTTCCCGGTAATCCGTATTTGCG (site CTGCGCTCTCG)	1.11
CTGCGTGCATGGACCGGTTTTCCCGGTAATCCGTATTTGTA (site CTGCGTGCTTA)	2.28
CTGCTATCATGGACCGGTTTTCCCGGTAATCCGTATTTGAC (site CTAGTATCTGT)	0
CTGCTATCATGGACCGGTTTTCCCGGTAATCCGTATTTGAC (site CTGCTATCTGT)	1.26
CTGCTCCCATGGACCGGTTTTCCCGGTAATCCGTATTTGCT (site CTGCTACCTAG)	0
CTGCTCCCATGGACCGGTTTTCCCGGTAATCCGTATTTGCT (site CTGCTCCCTAG)	1.78
CTGCTCCCATGGACCGGTTTTCCCGGTAATCCGTATTTGCT (site CTGCTGCCTAG)	0
CTGCTCCCATGGACCGGTTTTCCCGGTAATCCGTATTTGCT (site CTGCTTCCTAG)	0
CTGCTGCCATGGACCGGTTTTCCCGGTAATCCGTATTTGGC (site CTGCTGCCTGC)	0
CTGGAAACATGGACCGGTTTTCCCGGTAATCCGTATTTGTA (site CTGGAAACTTA)	2.14
CTGGAAACATGGACCGGTTTTCCCGGTAATCCGTATTTGTA (site CTGGAAACTTC)	0.294
CTGGAAACATGGACCGGTTTTCCCGGTAATCCGTATTTGTA (site CTGGAAACTTG)	1.22
CTGGAAACATGGACCGGTTTTCCCGGTAATCCGTATTTGTA (site CTGGAAACTTT)	1.81
CTGGAAGCATGGACCGGTTTTCCCGGTAATCCGTATTTGCA (site CTGGAAACTTG)	0.803
CTGGAAGCATGGACCGGTTTTCCCGGTAATCCGTATTTGCA (site CTGGAACCTTG)	0
CTGGAAGCATGGACCGGTTTTCCCGGTAATCCGTATTTGCA (site CTGGAAGCTTG)	1.04
CTGGAAGCATGGACCGGTTTTCCCGGTAATCCGTATTTGCA (site CTGGAATCTTG)	3.42
CTGGACACATGGACCGGTTTTCCCGGTAATCCGTATTTGAG (site CTGGACACTCT)	1.47

Sequence	recombinant UMI read abundance (log10)
CTGGAGGCATGGACCGGTTTTCCCGGTAATCCGTATTTGTG (site ATGGAGGCTCA)	0.00337
CTGGAGGCATGGACCGGTTTTCCCGGTAATCCGTATTTGTG (site CTGGAGGCTCA)	1.02
CTGGAGGCATGGACCGGTTTTCCCGGTAATCCGTATTTGTG (site GTGGAGGCTCA)	0.0315
CTGGAGGCATGGACCGGTTTTCCCGGTAATCCGTATTTGTG (site TTGGAGGCTCA)	0.0143
CTGGATACATGGACCGGTTTTCCCGGTAATCCGTATTTGCA (site CTGGAAACTTG)	1.14
CTGGATACATGGACCGGTTTTCCCGGTAATCCGTATTTGCA (site CTGGACACTTG)	1.92
CTGGATACATGGACCGGTTTTCCCGGTAATCCGTATTTGCA (site CTGGAGACTTG)	0.473
CTGGATACATGGACCGGTTTTCCCGGTAATCCGTATTTGCA (site CTGGATACTTG)	1.81
CTGGATACATGGACCGGTTTTCCCGGTAATCCGTATTTGTC (site CTGGATACTGA)	1.89
CTGGGACCATGGACCGGTTTTCCCGGTAATCCGTATTTGGT (site CTGGGACCTAC)	0.0117
CTGGGATCATGGACCGGTTTTCCCGGTAATCCGTATTTGCT (site CTGGGATCTAG)	1.9
CTGGGCGCATGGACCGGTTTTCCCGGTAATCCGTATTTGTA (site CTGGGCGCTTA)	1.62
CTGGTATCATGGACCGGTTTTCCCGGTAATCCGTATTTGAA (site CTAGTATCTGT)	2.25
CTGGTATCATGGACCGGTTTTCCCGGTAATCCGTATTTGAA (site CTGGTATCTTT)	2.5
CTGGTTACATGGACCGGTTTTCCCGGTAATCCGTATTTGAG (site CTGGTTACTCT)	1.7
CTGTCAGCATGGACCGGTTTTCCCGGTAATCCGTATTTGGG (site CTGTCAGCTCC)	0.0174
CTGTCCGCATGGACCGGTTTTCCCGGTAATCCGTATTTGAT (site CTGTCCGCTAT)	1.96
CTGTCGACATGGACCGGTTTTCCCGGTAATCCGTATTTGGG (site CAGTCGACTCC)	0.00865
CTGTCGACATGGACCGGTTTTCCCGGTAATCCGTATTTGGG (site CCGTCGACTCC)	0.0205
CTGTCGACATGGACCGGTTTTCCCGGTAATCCGTATTTGGG (site CGGTCGACTCC)	0.012
CTGTCGACATGGACCGGTTTTCCCGGTAATCCGTATTTGGG (site CTGTCGACTCC)	0.0289
CTGTCTACATGGACCGGTTTTCCCGGTAATCCGTATTTGTT (site CTGTCTACTAA)	0.252
CTGTGATCATGGACCGGTTTTCCCGGTAATCCGTATTTGAA (site CTGTGATCTTT)	2.65

Sequence	recombinant UMI read abundance (log10)
CTGTGTGCATGGACCGGTTTTCCCGGTAATCCGTATTTGGT (site CTGTGTGCTAC)	1.44
CTGTTTGCATGGACCGGTTTTCCCGGTAATCCGTATTTGAA (site CTGTTTGCTTT)	1.66
CTTCCGACATGGACCGGTTTTCCCGGTAATCCGTATTTGGA (site CTTCCGACTTC)	0.0169
CTTCCGGCATGGACCGGTTTTCCCGGTAATCCGTATTTGAT (site CTTCCGGCTAT)	1.14
CTTCGCTCATGGACCGGTTTTCCCGGTAATCCGTATTTGTA (site CTTCACTCTTA)	1.14
CTTCGCTCATGGACCGGTTTTCCCGGTAATCCGTATTTGTA (site CTTCCCTCTTA)	0.0134
CTTCGCTCATGGACCGGTTTTCCCGGTAATCCGTATTTGTA (site CTTCGCTCTTA)	1.8
CTTCGCTCATGGACCGGTTTTCCCGGTAATCCGTATTTGTA (site CTTCTCTCTTA)	0.00289
CTTCTAACATGGACCGGTTTTCCCGGTAATCCGTATTTGGA (site CTACTAACTTC)	0.0127
CTTCTAACATGGACCGGTTTTCCCGGTAATCCGTATTTGGA (site CTCCTAACTTC)	0.00424
CTTCTAACATGGACCGGTTTTCCCGGTAATCCGTATTTGGA (site CTGCTAACTTC)	0.00962
CTTCTAACATGGACCGGTTTTCCCGGTAATCCGTATTTGGA (site CTTCTAACTTC)	0.0115
CTTCTCTCATGGACCGGTTTTCCCGGTAATCCGTATTTGAA (site CTTCTCTCTTA)	0
CTTCTCTCATGGACCGGTTTTCCCGGTAATCCGTATTTGAA (site CTTCTCTCTTC)	0.199
CTTCTCTCATGGACCGGTTTTCCCGGTAATCCGTATTTGAA (site CTTCTCTCTTG)	0
CTTCTCTCATGGACCGGTTTTCCCGGTAATCCGTATTTGAA (site CTTCTCTCTTT)	0.96
CTTGACACATGGACCGGTTTTCCCGGTAATCCGTATTTGAC (site CTTGACACTGT)	0.445
CTTGCCCCATGGACCGGTTTTCCCGGTAATCCGTATTTGTG (site CTTGCCCCTCA)	0.0167
CTTGTACCATGGACCGGTTTTCCCGGTAATCCGTATTTGAC (site CTAGTATCTGT)	0
CTTGTACCATGGACCGGTTTTCCCGGTAATCCGTATTTGAC (site CTTGTACCTGT)	0
CTTGTGGCATGGACCGGTTTTCCCGGTAATCCGTATTTGGG (site CTTGTGGCTCC)	0.00701
CTTGTTGCATGGACCGGTTTTCCCGGTAATCCGTATTTGGT (site CTTGTTGCTAC)	1.26
